Measurements from patent EP4786466A1, “QUINAZOLINE DERIVATIVE, SALT THEREOF, AND PHARMACEUTICAL COMPOSITION COMPRISING SAME AS ACTIVE INGREDIENT” (Korea Research Institute of Chemical Technology, priority 2023, dated 2025).
Where two headings read alike, the source gives them in different places.

How the values were obtained:
pENSA = pENSA level by immunofluorescence (described method: in vitro kinase analysis with GST-tag-MASTL and His-tag-ENSA); assay type: cell-based; details: for pENSA (%) Immunofluor ecense (1 µM): compound 1 µM
In short: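 In vitro kinase reaction using recombinant GST-tagged MASTL with His-tagged ENSA as substrate; phosphorylated ENSA (pENSA) serves as read-out of MASTL activity. Cell lines named: MCF7 breast cancer and MCF10A.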

[1] = biological target: T1, Recombinant GST-TAG-MASTL (Homo sapiens, UniProt Q96GX5); experiment: HTRF-based kinase assay (HTRF KinEASE assay kit); assay type: biochemical; details: for activity at 1 µM: compound 1 µM, read-out: MASTL activity (%) HTRF (1 µM); for IC50: HTRF; for activity at 10 µM: footnote b: concentration 10 µM, read-out: MASTL activity (%) HTRF
T1 construct: GST; purchased Thermo Fisher Scientific
T1 sequence (Q96GX5 1-879): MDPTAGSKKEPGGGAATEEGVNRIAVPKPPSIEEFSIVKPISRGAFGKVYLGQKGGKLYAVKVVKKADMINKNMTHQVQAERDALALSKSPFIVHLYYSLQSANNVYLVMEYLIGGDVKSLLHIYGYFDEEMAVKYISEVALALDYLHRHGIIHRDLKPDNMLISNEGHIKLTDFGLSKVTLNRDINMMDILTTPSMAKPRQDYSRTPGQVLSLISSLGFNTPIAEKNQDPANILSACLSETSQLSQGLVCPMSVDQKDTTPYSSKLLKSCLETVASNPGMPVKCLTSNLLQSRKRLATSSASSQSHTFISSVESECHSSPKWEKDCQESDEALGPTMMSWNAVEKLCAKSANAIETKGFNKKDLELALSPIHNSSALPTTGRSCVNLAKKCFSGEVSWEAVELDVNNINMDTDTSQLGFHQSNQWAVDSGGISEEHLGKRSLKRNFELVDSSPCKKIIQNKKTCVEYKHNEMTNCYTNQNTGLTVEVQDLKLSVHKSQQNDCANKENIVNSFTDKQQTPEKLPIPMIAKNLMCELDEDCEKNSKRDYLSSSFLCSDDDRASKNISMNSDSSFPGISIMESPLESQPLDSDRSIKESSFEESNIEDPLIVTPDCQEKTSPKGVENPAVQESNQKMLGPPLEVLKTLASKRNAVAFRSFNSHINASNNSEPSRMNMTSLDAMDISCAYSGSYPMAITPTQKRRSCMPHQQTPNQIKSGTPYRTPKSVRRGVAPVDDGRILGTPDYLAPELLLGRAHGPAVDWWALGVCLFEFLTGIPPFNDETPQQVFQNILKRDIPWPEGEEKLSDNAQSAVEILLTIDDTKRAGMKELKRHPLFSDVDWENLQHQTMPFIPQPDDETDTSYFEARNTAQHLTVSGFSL
Excerpt: Recombinant GST-TAG-MASTL (Thermo Fisher Scientific, MA, USA) was used for HTRF-based kinase assays. The HTRF KinEASE assay kit (CisBio, MA, USA) was used according to the manufacturer's instructions.

[2] = test system: MCF7 breast cancer cell lines; experiment: Cell viability analysis, WST-8 assay, MCF7; details: Homo sapiens, MCF7, 72 h; for viability at 1 µM: read-out: Cell viability (%) WST-8, MCF7 (1 µM), compound 1 µM, 72 hours; for viability at 1.25 µM: read-out: Cell viability (%) WST-8, MCF7, footnote a: concentration 1.25 µM, 72 hours
Experimental: (§1) MCF7 breast cancer cell lines and MCF10A normal breast cancer cell lines were treated with serial dilutions of the compounds of the present invention ranging from 1 µM to 15.63 nM for 72 hours. Cell viability was measured by the WST-8 assay (Cyto XTM cell viability assay kit; LPS solution, Daejeon, Korea) according to the manufacturer's instructions.

in vitro = details: human, mcf10a cells
Experimental: as §1

[3] = test system: MCF10A normal breast cell lines; experiment: Cell viability analysis, WST-8 assay, MCF10A; details: Homo sapiens, MCF-10A, 72 h
Experimental: as §1

[4] = read-out: IC50(nM) Cell viability (MCF7)
[5] = read-out: IC50(nM) Cell viability (MCF10A)
[6] = read-out: IC50(nM) MASTL activity
[7] = unit µM, read-out: IC50 MASTL activity
[8] = read-out: IC50 Cell viability (MCF7)
[9] = read-out: IC50 Cell viability (MCF10A)

Structure (SMILES)	pENSA (%) Immunofluor ecense (1 µM) (pENSA)	activity at 1 µM [1]	viability at 1 µM [2]	IC50 [2, 4]	viability at 1 µM (in vitro)	IC50 [3, 5]	IC50 (pENSA; read-out: IC50(nM) pENSA)	IC50 [1, 6]	IC50 [1, 7]	IC50 [2, 8]	activity at 10 µM [1]	viability at 1.25 µM [2]	viability at 1.25 µM (in vitro)	IC50 [3, 9]	IC50 (pENSA; unit µM, read-out: IC50 pENSA)
c1ccc2c(Nc3cc(C4CC4)[nH]n3)nc(Nc3cc(C4CC4)[nH]n3)nc2c1 [compound 4n, M^2,M^4-bis(5-cyclopropyl-1G-pyrazol-3-yl)quinazoline-2,4-diamine]	92.8%	106%	21.5%	287 nM	3.2%	116 nM	–	–	–	–	–	–	–	–	–
O=C(O)Cc1ccc(Nc2nc(Nc3cc(C4CC4)[nH]n3)c3ccccc3n2)cc1 [compound 4s, 2-(4-((4-((5-cyclopropyl-1G-pyrazol-3-yl)amino)quinazolin-2-yl)amino)phenyl)acetic acid]	89.1%	56.2%	102%	102 nM	113%	113 nM	89.1 nM	–	–	–	–	–	–	–	–
NC(=O)c1ccc(Nc2nc(Nc3cc(C4CC4)[nH]n3)c3ccccc3n2)cc1 [compound 4t, 4-((4-((5-cyclopropyl-1G-pyrazol-3-yl)amino)quinazolin-2-yl)amino)benzamide]	0.9%	14.9%	2.7%	324 nM	18.4%	226 nM	341 nM	198 nM	–	–	–	–	–	–	–
NC(=O)Cc1ccc(Nc2nc(Nc3cc(C4CC4)[nH]n3)c3ccccc3n2)cc1 [compound 4u, 2-(4-((4-((5-cyclopropyl-1G-pyrazol-3-yl)amino)quinazolin-2-yl)amino)phenyl)acetamide]	41.2%	30.5%	64.8%	–	25.5%	718 nM	–	392 nM	–	–	–	–	–	–	–
Nc1ccc(Nc2nc(Nc3cc(C4CC4)[nH]n3)c3ccccc3n2)cc1 [compound 4v, M^2-(4-aminophenyl)-M^4-(5-cyclopropyl-1G-pyrazol-3-yl)quinazoline-2,4-diamine]	15.3%	41.4%	32.8%	390 nM	34.1%	438 nM	–	–	1500 nM	–	–	–	–	–	–
CC(C)(C)OC(=O)NCCNC(=O)c1ccc(Nc2nc(Nc3cc(C4CC4)[nH]n3)c3ccccc3n2)cc1 [compound 4w, sdqs-butyl (2-(4-((4-((5-cyclopropyl-1G-pyrazol-3-yl)amino)quinazolin-2-yl)amino)benzamido)ethyl)carbamate]	135%	48.5%	72%	–	63.4%	908 nM	–	–	1300 nM	1800 nM	–	–	–	–	–
c1ccc2c(Nc3cc(C4CC4)[nH]n3)nc(N3CCC4(CC3)OCCO4)nc2c1 [compound 6a, M-(5-cyclopropyl-1G-pyrazol-3-yl)-2-(1,4-dioxa-8-azaspiro[4.5]decan-8-yl)quinazolin-4-amine]	10.1%	15.2%	13.2%	499 nM	20.9%	392 nM	532 nM	340 nM	–	–	–	–	–	–	–
Cc1ccc(C2=CCN(c3nc(Nc4cc(C5CC5)[nH]n4)c4ccccc4n3)CC2)c(C)c1 [compound 6j, M-(5-cyclopropyl-1G-pyrazol-3-yl)-2-(4-(2,4-dimethylphenyl)-3,6-dihydropyridin-1(2G)-yl)quinazolin-4-amine]	97.4%	80%	45.6%	674 nM	33.1%	566 nM	–	–	–	–	–	–	–	–	–
Cc1cc(Cl)ccc1C1=CCN(c2nc(Nc3cc(C4CC4)[nH]n3)c3ccccc3n2)CC1 [compound 6l, 2-(4-(4-chloro-2-methylphenyl)-3,6-dihydropyridin-1(2G)-yl)-M-(5-cyclopropyl-1G-pyrazol-3-yl)quinazolin-4-amine]	101%	76.1%	47.8%	484 nM	15.2%	332 nM	–	–	–	–	–	–	–	–	–
CC(C)C(=O)N1CC=C(c2nc(Nc3cc(C4CC4)[nH]n3)c3ccccc3n2)CC1 [compound 9b, 1-(4-(4-((5-cyclopropyl-1G-pyrazol-3-yl)amino)quinazolin-2-yl)-3,6-dihydropyridin-1(2G)-yl)-2-methylpropan-1-one]	34.6%	21.7%	52.5%	–	12.3%	316 nM	832 nM	136 nM	–	1000 nM	–	–	–	–	–
c1ccc2c(Nc3cc(C4CC4)[nH]n3)nc(N3CCNCC3)nc2c1 [compound 11, M-(5-cyclopropyl-1G-pyrazol-3-yl)-2-(piperazin-1-yl)quinazolin-4-amine]	66.4%	–	–	–	–	–	–	–	1000 nM	3200 nM	18.1%	104%	98%	4100 nM	–
CN1CCN(c2nc(Nc3cc(C4CC4)[nH]n3)c3ccccc3n2)CC1 [compound 12a, M-(5-cyclopropyl-1G-pyrazol-3-yl)-2-(4-methylpiperazin-1-yl)quinazolin-4-amine]	63.8%	–	–	697 nM	–	–	–	–	–	–	26.3%	26.2%	82.3%	2400 nM	1100 nM
OCCN1CCN(c2nc(Nc3cc(C4CC4)[nH]n3)c3ccccc3n2)CC1 [compound 12b, 2-(4-(4-((5-cyclopropyl-1G-pyrazol-3-yl)amino)quinazolin-2-yl)piperazin-1-yl)ethan-1-ol]	41.7%	–	–	–	–	2600 nM	852 nM	807 nM	–	1500 nM	17.7%	69.4%	123%	–	–
CCNC(=O)N1CCN(c2nc(Nc3cc(C4CC4)[nH]n3)c3ccccc3n2)CC1 [compound 12c, 4-(4-((5-cyclopropyl-1G-pyrazol-3-yl)amino)quinazolin-2-yl)-M-ethylpiperazine-1-carboxamide]	75.8%	–	–	–	–	–	–	–	–	–	45.7%	107%	61.3%	1400 nM	–
